What all share (type): biochemical
Experiment [1] has as its target T1, human PKCθ full length enzyme (Homo sapiens, UniProt Q04759).
T1 construct: human PKCθ full length enzyme (Panvera Cat# P2996); purchased Panvera P2996
Nature of the experiment: PKCθ IMAP assay (fluorescence polarization). The following applies: human PKCθ full length enzyme, IMAP; average value; read-out: IC50 PKCθ IMAP. In general terms: Polarisation of emitted light reports the rotation of a fluorescent probe.

Experiment [2] has as its target T2, purified recombinant full length PKC theta (Panvera, P2996) (Homo sapiens, UniProt Q04759).
T2 construct: purified recombinant full length PKC theta (Panvera, P2996); purchased Panvera P2996
The experiment can be described thus: Radioactive kinase assay for inhibition of full length (FL) PKCθ. The following applies: average value. As for the experimental part: This assay is based on the phosphorylation of a biotinylated substrate by a kinase utilizing radiolabeled ATP (ATP γ P33). The substrate was a biotinylated peptide with a sequence of biotin-[…]-C(O)NH2. […] The assay buffer was composed of 100 mM Hepes, pH7.5, 2 mM MgCl2, 20 mM β-glycerophosphate and 0.008% TritonX 100. A reaction mixture of ATP, ATP γ P33 (PerkinElmer), DTT, and the enzyme was prepared in the assay buffer and added to a 96-well polypropylene plate. The compound (diluted in DMSO in a separate 96-well polypropylene plate) was added to the reaction mixture and incubated at room temperature. Following the incubation, the peptide substrate was added to the reaction mixture to initiate the enzymatic reaction. The reaction was terminated with the addition of a stop solution (100 mM EDTA, 0.2% TritonX100, and 20 mM NaHPO4) and transferred from the assay plate to a washed streptavidin-coated 96-well scintiplate (PerkinElmer). […] Counts were recorded for each well as corrected counts per minute (CCPM). The counts were considered corrected because they were adjusted according to a P33 normalization protocol, which corrects for efficiency and background differences between the instrument detectors (software version 4.40.01).
A Radioactive Kinase Assay for Inhibition of Full Length (FL) PKCθ Inhibitors
This assay differs from what was described above in that the enzyme used was purified recombinant full length PKC theta (Panvera, P2996).

Experiment [3] deals with T3, purified recombinant active kinase domain of full length PKC theta (amino acids 362-706) (Homo sapiens, UniProt Q04759).
T3 construct: active kinase domain of full length PKC theta (amino acids 362-706)
Nature of the experiment: Radioactive kinase assay for inhibition of the active kinase domain (KD) of PKCθ. The following applies: active kinase domain of PKC theta (amino acids 362-706), average value, read-out: IC50 PKCθKD. As for the experimental part: A Radioactive Kinase Assay for Inhibition of the Active Kinase Domain (KD) of PKCθ
This assay is based on the phosphorylation of a biotinylated substrate by a kinase utilizing radiolabeled ATP (ATP γ P33). The substrate was a biotinylated peptide with a sequence of biotin-[…]-C(O)NH2. The enzyme was purified recombinant active kinase domain of full length PKC theta (amino acids 362-706). The assay buffer was composed of 100 mM Hepes, pH7.5, 2 mM MgCl2, 20 mM β-glycerophosphate and 0.008% TritonX 100. A reaction mixture of ATP, ATP γ P33 (PerkinElmer), DTT, and the enzyme was prepared in the assay buffer and added to a 96-well polypropylene plate. The compound (diluted in DMSO in a separate 96-well polypropylene plate) was added to the reaction mixture and incubated at room temperature. Following the incubation, the peptide substrate was added to the reaction mixture to initiate the enzymatic reaction. The reaction was terminated with the addition of a stop solution (100 mM EDTA, 0.2% TritonX100, and 20 mM NaHPO4) and transferred from the assay plate to a washed streptavidin-coated 96-well scintiplate (PerkinElmer). The scintiplate was incubated at room temperature, washed in PBS with 0.1% TritonX 100, and counted in the 1450 Microbeta Trilux (Wallac, Version 2.60). Counts were recorded for each well as corrected counts per minute (CCPM). The counts were considered corrected because they were adjusted according to a P33 normalization protocol, which corrects for efficiency and background differences between the instrument detectors (software version 4.40.01).

The IC50 is the concentration that inhibits the measured activity by half.

T1 sequence (Q04759 whole entry): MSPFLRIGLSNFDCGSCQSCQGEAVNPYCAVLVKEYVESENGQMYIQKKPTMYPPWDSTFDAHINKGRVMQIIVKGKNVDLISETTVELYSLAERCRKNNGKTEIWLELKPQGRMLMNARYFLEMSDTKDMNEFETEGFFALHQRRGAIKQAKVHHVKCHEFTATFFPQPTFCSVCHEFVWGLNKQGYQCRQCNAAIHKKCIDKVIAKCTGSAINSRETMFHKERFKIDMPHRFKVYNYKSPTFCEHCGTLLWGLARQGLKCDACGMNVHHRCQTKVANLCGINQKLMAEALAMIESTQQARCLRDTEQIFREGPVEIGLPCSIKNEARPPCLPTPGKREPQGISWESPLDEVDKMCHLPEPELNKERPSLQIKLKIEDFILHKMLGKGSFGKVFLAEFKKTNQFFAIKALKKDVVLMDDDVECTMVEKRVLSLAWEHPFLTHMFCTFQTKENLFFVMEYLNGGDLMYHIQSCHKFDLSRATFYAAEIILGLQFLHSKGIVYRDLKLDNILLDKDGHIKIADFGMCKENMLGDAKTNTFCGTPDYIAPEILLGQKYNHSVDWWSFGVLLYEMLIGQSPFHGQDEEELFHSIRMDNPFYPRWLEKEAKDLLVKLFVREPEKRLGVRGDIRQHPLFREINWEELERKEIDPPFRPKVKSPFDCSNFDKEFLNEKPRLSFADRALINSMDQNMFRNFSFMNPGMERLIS
T2 sequence (Q04759 whole entry): as above
T3 sequence (Q04759 362-706): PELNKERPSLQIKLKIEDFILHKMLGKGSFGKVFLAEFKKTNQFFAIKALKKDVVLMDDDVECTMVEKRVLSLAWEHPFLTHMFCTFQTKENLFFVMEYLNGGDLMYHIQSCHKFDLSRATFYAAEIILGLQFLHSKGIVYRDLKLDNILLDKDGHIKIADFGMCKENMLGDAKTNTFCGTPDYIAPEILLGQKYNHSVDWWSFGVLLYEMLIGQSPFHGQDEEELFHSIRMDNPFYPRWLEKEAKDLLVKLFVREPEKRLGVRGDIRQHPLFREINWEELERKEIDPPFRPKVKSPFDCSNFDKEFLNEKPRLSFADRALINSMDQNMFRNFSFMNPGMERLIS

Turning to `COc1ccc(-c2cncc(C#N)c2Nc2ccc3[nH]ccc3c2)cc1OC` [Compound 101, 5-(3,4-dimethoxyphenyl)-4-(1H-indol-5-ylamino)nicotinonitrile], the values for the IC50 in experiment [1], in experiment [2] and in experiment [3] were 140 nM, 83 nM and 140 nM, respectively.

In the case of `COc1ccc(-c2cncc(C#N)c2Nc2cccc3nsnc23)cc1OC` [Compound 102, 4-(2,1,3-benzothiadiazol-4-ylamino)-5-(3,4-dimethoxyphenyl)nicotinonitrile], the IC50 in experiment [3] was determined as 960 nM. Same read-out and setting: under `COc1ccc(-c2cncc(C#N)c2Nc2cccc3cnccc23)cc1OC` [Compound 103, 5-(3,4-dimethoxyphenyl)-4-(isoquinolin-5-ylamino)nicotinonitrile] stands 5680 nM; under `COc1ccc(-c2cncc(C#N)c2Nc2cccc3ncccc23)cc1OC` [Compound 104, 5-(3,4-dimethoxyphenyl)-4-(quinolin-5-ylamino)nicotinonitrile], 6560 nM.

Turning to `COc1ccc(-c2cncc(C#N)c2Nc2cccc3c2CCCC3)cc1OC` [Compound 105, 5-(3,4-dimethoxyphenyl)-4-(5,6,7,8-tetrahydronaphthalen-1-ylamino)nicotinonitrile], the IC50 in experiment [3] was 2660 nM. The same measure, in the same setting: under `COc1ccc(-c2cncc(C#N)c2Nc2ccc3c(c2)OCCO3)cc1OC` [Compound 106, 4-(2,3-dihydro-1,4-benzodioxin-6-ylamino)-5-(3,4-dimethoxyphenyl)nicotinonitrile] stands 11400 nM.

For the compound `COc1ccc(-c2cncc(C#N)c2Nc2ccc3cc[nH]c3c2)cc1OC` [Compound 108, 5-(3,4-dimethoxyphenyl)-4-(1H-indol-6-ylamino)nicotinonitrile], the IC50 in experiment [1] turned out to be 450 nM; in experiment [2], 2250 nM; in experiment [3], 1010 nM. In the case of `COc1ccc(-c2cncc(C#N)c2Nc2cccc3[nH]ccc23)cc1OC` [Compound 109, 5-(3,4-dimethoxyphenyl)-4-(1H-indol-4-ylamino)nicotinonitrile], the IC50 came out at 13 nM in experiment [1], 40 nM in experiment [2] and 150 nM in experiment [3]. For `CC(=O)Nc1ccc(-c2cccc(-c3cncc(C#N)c3Nc3ccc4[nH]ccc4c3)c2)cc1` [Compound 120, N-{3′-[5-cyano-4-(1H-indol-5-ylamino)pyridin-3-yl]biphenyl-4-yl}acetamide], the IC50 in experiment [1] stood at 230 nM; in experiment [2], 120 nM.

As to `N#Cc1cncc(-c2cccc(-c3ccccc3Cl)c2)c1Nc1ccc2[nH]ccc2c1` [Compound 129, 5-(2′-chlorobiphenyl-3-yl)-4-(1H-indol-5-ylamino)nicotinonitrile], the IC50 in experiment [1] was determined as 240 nM; in experiment [2], 60 nM. For `N#Cc1cncc(-c2cccc(-c3cccc(Cl)c3)c2)c1Nc1ccc2[nH]ccc2c1` [Compound 130, 5-(3′-chlorobiphenyl-3-yl)-4-(1H-indol-5-ylamino)nicotinonitrile], in that order: 160 nM and 80 nM.

On to `N#Cc1cncc(-c2cccc(-c3ccc(Cl)cc3)c2)c1Nc1ccc2[nH]ccc2c1` [Compound 131, 5-(4′-chlorobiphenyl-3-yl)-4-(1H-indol-5-ylamino)nicotinonitrile], for which the results for the IC50 in experiment [1] and in experiment [2] were 120 nM and 50 nM, respectively. Taken in the same sequence, the figures for `N#Cc1cncc(-c2cccc(-c3ncccn3)c2)c1Nc1ccc2[nH]ccc2c1` [Compound 138, 4-(1H-indol-5-ylamino)-5-(3-pyrimidin-2-ylphenyl)nicotinonitrile] were 190 nM and 100 nM. Taken in the same sequence, the figures for `COCCOc1cc(-c2cncc(C#N)c2Nc2ccc3[nH]ccc3c2)ccc1OC` [Compound 154, 4-(1H-indol-5-ylamino)-5-[4-methoxy-3-(2-methoxyethoxy)phenyl]nicotinonitrile] were 320 nM and 360 nM. For `COCCOc1ccc(-c2cncc(C#N)c2Nc2cccc3[nH]ccc23)cc1OC` [Compound 159, 4-(1H-indol-4-ylamino)-5-[3-methoxy-4-(2-methoxyethoxy)phenyl]nicotinonitrile], in that order: 16 nM and 60 nM. As for `N#Cc1cncc(-c2cccc(OCCN3CCCC3)c2)c1Nc1cccc2[nH]ccc12` [Compound 169, 4-(1H-indol-4-ylamino)-5-[3-(2-pyrrolidin-1-ylethoxy)phenyl]nicotinonitrile], in experiment [2], the concentration for half-maximal inhibition (IC50) amounted to 30 nM. The same measure, in the same setting: to `N#Cc1cncc(-c2cccc(OCCN3CCOCC3)c2)c1Nc1cccc2[nH]ccc12` [Compound 170, 4-(1H-indol-4-ylamino)-5-[3-(2-morpholin-4-ylethoxy)phenyl]nicotinonitrile] belongs 20 nM. The same measure, in the same setting: to `N#Cc1cncc(-c2cccc(OCCN3CCCC3)c2)c1Nc1ccc2cc[nH]c2c1` [Compound 172, 4-(1H-indol-6-ylamino)-5-[3-(2-pyrrolidin-1-ylethoxy)phenyl]nicotinonitrile] belongs 2590 nM. Same read-out and setting: under `N#Cc1cncc(-c2cccc(OCCN3CCOCC3)c2)c1Nc1ccc2cc[nH]c2c1` [Compound 173, 4-(1H-indol-6-ylamino)-5-[3-(2-morpholin-4-ylethoxy)phenyl]nicotinonitrile] stands 2630 nM; under `N#Cc1cncc(-c2cccc(OCCN3CCCC3)c2)c1Nc1ccc2[nH]ccc2c1` [Compound 174, 4-(1H-indol-5-ylamino)-5-[3-(2-pyrrolidin-1-ylethoxy)phenyl]nicotinonitrile], 70 nM. For `N#Cc1cncc(-c2cccc(OCCN3CCOCC3)c2)c1Nc1ccc2[nH]ccc2c1` [Compound 175, 4-(1H-indol-5-ylamino)-5-[3-(2-morpholin-4-ylethoxy)phenyl]nicotinonitrile], the IC50 in experiment [2] worked out at 100 nM. On to `N#Cc1cncc(-c2cccc(OCc3ccccc3)c2)c1Nc1ccc2[nH]ccc2c1` [Compound 194, 5-[3-(benzyloxy)phenyl]-4-(1H-indol-5-ylamino)nicotinonitrile], for which the IC50 in experiment [2] was 50 nM.

In the case of `N#Cc1cncc(-c2cccc(-c3ccc(C(=O)NCc4ccccc4)cc3)c2)c1Nc1ccc2[nH]ccc2c1` [Compound 204, N-benzyl-3′-[5-cyano-4-(1H-indol-5-ylamino)pyridin-3-yl]biphenyl-4-carboxamide], the IC50 in experiment [2] was determined as 190 nM. Turning to `N#Cc1cncc(-c2cccc(-c3ccc(C(=O)N4CCOCC4)cc3)c2)c1Nc1ccc2[nH]ccc2c1` [Compound 206, 4-(1H-indol-5-ylamino)-5-[4′-(morpholin-4-ylcarbonyl)biphenyl-3-yl]nicotinonitrile], in experiment [2], the IC50 amounted to 1140 nM.

`CN1CCN(C(=O)c2ccc(-c3cccc(-c4cncc(C#N)c4Nc4ccc5[nH]ccc5c4)c3)cc2)CC1` [Compound 207, 4-(1H-indol-5-ylamino)-5-{4′-[(4-methylpiperazin-1-yl)carbonyl]biphenyl-3-yl}nicotinonitrile]: the IC50 in experiment [2] stood at 530 nM. On the same count and under the same terms, under `COc1ccc(-c2cncc(C#N)c2Nc2cc(C)c3[nH]ccc3c2)cc1OC` [Compound 217, 5-(3,4-dimethoxyphenyl)-4-[(7-methyl-1H-indol-5-yl)amino]nicotinonitrile] stands 360 nM; under `COc1ccc(-c2cncc(C#N)c2Oc2ccc3[nH]ccc3c2)cc1OC` [Compound 220, 5-(3,4-dimethoxyphenyl)-4-(1H-indol-5-yloxy)nicotinonitrile], > 20000 nM.

The values above are taken from patent US7781591B2, “Substituted 3-cyanopyridines as protein kinase inhibitors” (Wyeth LLC, priority 2006, dated 2010).
